Measurements published in US20040072139A1, “Photodynamic treatment and uv-b-irradiation of a thrombocyte suspension” (priority 2000, published 2004).

Legend:
T-lymphocytes = assay: Inactivation of T lymphocytes in PC, ConA-stimulated BRDU proliferation assay; format: cell-based; conditions: for Absorption OD450 nm (BRDU incorporation rate): ConA activation, three days cultivation
SV-40 = format: cell-based, simian virus-40
SFV = format: cell-based, Semliki Forest virus
platelets [1] = assay: Collagen-induced aggregation of treated platelet suspensions
VSV = format: cell-based, vesicular stomatitis virus
platelets [2] = assay: Hypotonic shock reaction (HSR) of treated platelet suspensions
SHV-1 = format: cell-based, suid herpesvirus 1
CSFV = format: cell-based, classical swine fever virus
HIV-1 = format: cell-based, human immunodeficiency virus, Type 1
BVDV = format: cell-based, bovine viral diarrhoea virus
[3] = Experiment 1, Day 1 after treatment, thionine/light + UV-B 2.4 J/cm^2
[4] = Experiment 1, Day 1 after treatment, thionine/light alone
[5] = Experiment 1, Day 3 after treatment, thionine/light + UV-B 2.4 J/cm^2
[6] = Experiment 1, Day 3 after treatment, thionine/light alone
[7] = Experiment 2, Day 1 after treatment, thionine/light + UV-B 2.4 J/cm^2
[8] = Experiment 2, Day 1 after treatment, thionine/light alone
[9] = Experiment 2, Day 3 after treatment, thionine/light + UV-B 2.4 J/cm^2
[10] = Experiment 2, Day 3 after treatment, thionine/light alone
[11] = Experiment 3, Day 1 after treatment, thionine/light + UV-B 2.4 J/cm^2
[12] = Experiment 3, Day 1 after treatment, thionine/light alone
[13] = Experiment 3, Day 3 after treatment, thionine/light + UV-B 2.4 J/cm^2
[14] = Experiment 3, Day 3 after treatment, thionine/light alone
[15] = combined treatment with thionine/light and UV-B compared with photodynamic treatment alone

## Cl.N=c1ccc2nc3ccc(N)cc3sc-2c1 [Thionine/light, Thionine]
T-lymphocytes; PC additionally treated with thionine/light (2 μM, 30 min), at least 4 min with UV-B alone
  UV-B irradiation time required for complete inactivation of the cells: approximately 3 min
T-lymphocytes; Th/light (2 μM, 30 min) then UV-B 0.6 J/cm^2
  Absorption OD450 nm (BRDU incorporation rate): 1.020
T-lymphocytes; Th/light (2 μM, 30 min) then UV-B 0.9 J/cm^2
  Absorption OD450 nm (BRDU incorporation rate): 0.387
T-lymphocytes; Th/light (2 μM, 30 min) then UV-B 1.2 J/cm^2
  Absorption OD450 nm (BRDU incorporation rate): 0.240
T-lymphocytes; thionine/light alone (2 μM, 30 min)
  Influence on the proliferation of the cells (in words): no influence
SV-40
  Infectivity (in words): still not completely eliminated
  Reduction of virus titre: 3.9 log10TCID50
SFV
  Inactivation of virus (in words): completely inactivated
  Reduction of virus titre: ≧5.2 log10TCID50
Platelets [1]; [3]
  collagen-induced aggregation: 69.75%
Platelets [1]; [4]
  collagen-induced aggregation: 73.25%
Platelets [1]; [5]
  collagen-induced aggregation: 16.75%
Platelets [1]; [6]
  collagen-induced aggregation: 13.75%
Platelets [1]; [7]
  collagen-induced aggregation: 76.67%
Platelets [1]; [8]
  collagen-induced aggregation: 84.67%
Platelets [1]; [9]
  collagen-induced aggregation: 53.50%
Platelets [1]; [10]
  collagen-induced aggregation: 27.67%
Platelets [1]; [11]
  collagen-induced aggregation: 58.33%
Platelets [1]; [12]
  collagen-induced aggregation: 69.67%
Platelets [1]; [13]
  collagen-induced aggregation: 30.33%
Platelets [1]; [14]
  collagen-induced aggregation: 15.67%
Platelets [1]; [15]
  Influence on collagen-induced aggregation (in words): neither the HSR (hypotonic shock reaction) nor the collagen-induced aggregation of platelet concentrates is substantially more strongly influenced
VSV
  Infectivity (in words): still not completely eliminated
  Reduction of virus titre: 4.4 log10TCID50
Platelets [2]; [3]
  HSR: 47.86%
Platelets [2]; [4]
  HSR: 65.49%
Platelets [2]; [5]
  HSR: 51.16%
Platelets [2]; [6]
  HSR: 49.16%
Platelets [2]; [7]
  HSR: 42.37%
Platelets [2]; [8]
  HSR: 56.24%
Platelets [2]; [9]
  HSR: 30.26%
Platelets [2]; [10]
  HSR: 52.61%
Platelets [2]; [11]
  HSR: 54.45%
Platelets [2]; [12]
  HSR: 69.30%
Platelets [2]; [13]
  HSR: 48.31%
Platelets [2]; [14]
  HSR: 55.49%
Platelets [2]; [15]
  Influence on HSR (in words): neither the HSR (hypotonic shock reaction) nor the collagen-induced aggregation of platelet concentrates is substantially more strongly influenced
SHV-1
  Reduction of virus titre: ≧3.6 log10TCID50
CSFV
  Inactivation of virus (in words): completely inactivated
  Reduction of virus titre: ≧5.5 log10TCID50
HIV-1
  Reduction of virus titre: ≧5.7 log10TCID50
BVDV
  Inactivation of virus (in words): completely inactivated
  Reduction of virus titre: ≧4.9 log10TCID50
